# From patent US20230295162A1 (EÖTVÖS LORÁND TUDOMÁNYEGYETEM, priority 2020, published 2023)
# Tests used:
# EBC-1 cell line = assay: Additional in vitro IC50 tests (Table 3); type: cell-based; conditions: Homo sapiens
# Method: (§1) Cell lines were maintained according to the instructions provided by ATCC (https://www.lgcstandards-atcc.org/) in a 5% CO2 humidified incubator maintained at 37° C. temperature. Effects of compounds on cell viability were measured via CellTiter-Glo® luminescent cell viability assay (Promega, Madison, WI, USA) Cells were plated at 1000 cells/well onto a flat-bottomed, white 96 well plate (BRANDplates, cat. no.: 781965). […] After the treatment, medium was removed and CellTiter-Glo® reagent was added. The luminescence signal was recorded using a microplate reader (BioTek Synergy 2 Multi-Mode Reader, BioTek, Winooski, VT, USA).
# (§2) Cell viability data (% of untreated control cells) was evaluated with Microsoft Excel. Dose-response curves (using a non-linear regression model, log (inhibitor) vs response, variable slope) were generated and IC50 values were determined using Graph Pad Prism 5.02 software (GraphPad Software, San Diego, CA, USA).
# SCC-25 cell line = assay: Additional in vitro IC50 tests (Table 3); type: cell-based; conditions: Homo sapiens
# Method: as §1, §2
# Detroit 562 cell line = assay: Additional in vitro IC50 tests (Table 3); type: cell-based; conditions: Homo sapiens
# Method: as §1, §2
# H2228 cell line = assay: Additional in vitro IC50 tests (Table 3); type: cell-based; conditions: Homo sapiens, NCI-H2228
# Method: as §1, §2
# Fadu cell line = assay: Additional in vitro IC50 tests (Table 3); type: cell-based; conditions: Homo sapiens
# Method: as §1, §2
# [1] = tested on: Panc1 pancreatic cancer cell line; assay: CellTiter-Glo IC50 (Example 19); type: cell-based; conditions: Homo sapiens, PANC-1, 72 h
# Method: Some representative imipridones and ONC212 as reference were further tested on the following human malignant cell lines: PC3 and LNCap (prostate carcinoma); BxPC3, MiaPaCa2 and Panc1 (pancreatic cancer); A549, HCC827, H1993 and H520 (lung carcinoma); MDA-MB-453 and MDA-MB-231 (breast cancer) (see Table 2 and FIGS. 1-11).
# as §1, §2
SMILES,IC50 (EBC-1 cell line) [nM],IC50 (SCC-25 cell line) [nM],IC50 (Detroit 562 cell line) [nM],IC50 (H2228 cell line) [nM],IC50 (Fadu cell line) [nM],melting point [°C],IC50 [1] [nM]
"Nc1cccc(CN2C(=O)C3=C(CCN(Cc4cc(F)cc(F)c4)C3)N3CCN=C23)c1 [I/126, 4-(3-Aminobenzyl)-7-(3,5-difluorobenzyl)-2,4,6,7,8,9-hexahydroimidazo[1,2-a]pyrido[3,4-e]pyrimidin-5(1H)-one]",288,> 300,103,269,290,114.5,
"[N-]=[N+]=Nc1cccc(CN2C(=O)C3=C(CCN(Cc4cc(F)cc(F)c4)C3)N3CCN=C23)c1 [I/127, 4-(3-Azidobenzyl)-7-(3,5-difluorobenzyl)-2,4,6,7,8,9-hexahydroimidazo[1,2-a]pyrido[3,4-e]pyrimidin-5(1H)-one]",16,21,10,15,16,158,
O=C1C2=C(CCN(Cc3cc(F)cc(F)c3)C2)N2CCN=C2N1[C@@H](CO)c1ccc(F)cc1 [I/129 (R)],,,,,,76,15
O=C1C2=C(CCN(Cc3cc(F)cc(F)c3)C2)N2CCN=C2N1[C@H](CO)c1ccc(F)cc1 [I/129 (S)],> 300,> 300,120,300,150,,265
